Measurements published in patent US20230295571A1, “COMPOSITIONS AND METHODS FOR STEM CELL CHONDROGENESIS” (Washington University, priority 2020, published 2023).

Key:
Format in all cases: cell-based, human
[1] = test system: hiPSC chondrogenic pellets; experiment: Biochemical analysis of cartilaginous matrix production (GAG/DNA) in hiPSC chondrogenic pellets; settings: 1 μM inhibitor + TGF-β3 during pellet culture, d28/d42, vs TGF-β3 or other regimens
Protocol: Chondrogenic differentiation. Cells dissociated at the Cp stage were resuspended at 5×10^5 cells per mL in chondrogenic medium consisting of DMEM/F-12, 1% FBS, 1% ITS+, 55 μM β-mertcaptoethanol, 100 nM dexamethasone (DEX; Sigma-Aldrich, #D4902), 1% NEAA (Gibco, #11140050), 1% P/S, 10 ng ml^−1 human transforming growth factor-beta 3 (TGF-β3; R&D Systems, #243-B3-010), 50 μg ml^−1 L-ascorbic acid 2-phosphate (ascorbate; Sigma-Aldrich, #A8960), and 40 μg ml^−1 L-Proline (proline; Sigma-Aldrich, #P5607). Cells were then centrifuged for 5 min at 300×g to form a pellet. Chondrogenic pellets were cultured at 37° C. for up to the timepoints required for various experiments.
WNT-C59 and ML329 treatment for WNT and MITF inhibition. For WNT-C59 treatment for WNT inhibition during chondrogenesis, pellets were treated with either 10 ng ml^−1 TGF-β3 (control group) or a combination of 10 ng ml^−1 TGF-β3 and 1 μM WNT-C59 in a chondrogenic medium from d0 to d42 as appropriate. […]
Biochemical analysis of cartilaginous matrix production. […] GAG content, as calculated based on the standard curve, was normalized to double-stranded DNA content to obtain the GAG/DNA ratio.

[2] = test system: WNT2B, WNT3A, WNT4, WNT5B, WNT7B; experiment: Western blots of WNT proteins in d28 pellets
Protocol: Western blots. To examine the effect of WNT-C59 on WNT inhibition in the pellets at protein levels, Western blot analysis was performed on d28 pellets with or without WNT-C59 treatments. Six to eight pellets per experimental group were pooled and digested with 0.04% Type II collagenase solution in DMEM/F12 for 1 h. Cells were washed once with PBS and lysed in RIPA buffer (Cell Signaling Technology, #9806S) with protease inhibitor (ThermoFisher, #87786) and phosphatase inhibitor (Santa Cruz Biotechnology, #sc-45044). Protein concentration was measured using the BCA Assay (Pierce). Ten micrograms of proteins for each well were separated on 10% sodium dodecyl sulfate-polyacrylamide gel electrophoresis gels with prestained molecular weight markers (Bio-Rad, 161-0374) and transferred to a polyvinylidene fluoride (PVDF) membrane. The PVDF membrane blots were incubated overnight at 4° C. with the following primary antibodies: anti-WNT2B (1:350, Abcam, ab178418), anti-WNT3A (1:1000, Abcam, ab81614), anti-WNT4 (1:500, Abcam, ab91226), anti-WNTSB (1:500, Abcam, ab93134), anti-WNT7B (1:2000, Abcam, ab155313) and anti-GAPDH (1:30000, Proteintech 60004-1-Ig) for loading control, respectively. […] Immunoblots were imaged and analyzed using the iBright FL1000 Imaging System (Thermo Fisher). […]

[3] = test system: hiPSC chondrogenic pellets; experiment: Immunohistochemistry of collagens in pellets; settings: pellet culture
Protocol: WNT ligands treatment during chondrogenesis. For WNT ligands treatment during chondrogenesis, pellets were treated with either 10 ng ml^−1 TGF-β3 (control group) or a combination of 10 ng ml^−1 TGF-β3 and 100 ng ml^−1 individual WNT ligand (WNT2B, WNT3A, WNT4, WNT5B, or WNT7B, all from R&D system) in chondrogenic medium from d0 to d42 as appropriate. For WNT ligands treatment during the Cp stage, cells were supplemented with either 20 ng ml^−1 BMP4 (R&D Systems, #314-BP-010) alone (control group), a combination of 20 ng ml^−1 BMP4 and 1 μM WNT-059, or a combination of 20 ng ml^−1 BMP4 and 100 ng ml^−1 WNT3A (R&D Systems, #5036-WN-010) in mesodermal differentiation medium from d7 to d12.
Immunohistochemistry. Histologic sections (8 μm thick) of the pellets were rinsed with xylenes three times and rehydrated before labeling. Antigen retrieval was performed with 0.02% proteinase K for 3 min at 37° C. for COL2A1 and COL6A1 and with pepsin for 5 min at room temperature for COL1A1 and COL10A1 followed by peroxidase quench then serum blocking for 30 min at room temperature. […]

How did the GAG/DNA ratio [1] turn out when `Cc1cc(-c2ccc(CC(=O)Nc3ccc(-c4cccnc4)cc3)cc2)ccn1` [WNT-C59] was run?
The GAG/DNA ratio was “significantly increased”.

What about the WNT5B protein [2] of the same molecule?
The WNT5B protein was “only moderately inhibited”.

And the “protein levels of WNT2B, WNT3A, WNT4, and WNT7B” value [2]?
Its value is “decreased”.

What about the “COL1A1 and COL10A1 staining/production” value [3] of the same molecule?
Its value is “low”.
